Data as given in US11207285B2, “Diabetes treatment regimens using alpha, alpha-substituted long-chain amphipathic carboxylates” (SYNDROMEX LTD., priority 2016, dated 2021).

Key:
half-life in dogs = details: dog, in vivo, read-out: half-life (T1/2) (converted)
Description: (§1) The half-life (T1/2) of Medica compounds in humans differs considerably from their half-life in model animals. […] This difference in half-life could not be expected, and is of considerable significance when designing a new treatment protocol for humans.

half-life in rats = details: rat, in vivo, read-out: half-life (T1/2) (converted)
Description: as §1

half-life in humans = type: in vivo; details: human, in vivo, read-out: half-life (T1/2) (converted)
Description: as §1

[1] = tested on: cultured human HepG2 liver cells; assay: inhibition of lipoprotein production in HepG2 cells; type: cell-based
[2] = tested on: genes that control liver gluconeogenesis and lipid synthesis; assay: expression of glucose- and lipid-related genes in in vitro models; type: cell-based
Procedure: (§2) The compound 2,2,15,15-tetramethylhexadecane-1,16-dioic acid (also designated M16αα), and also the compounds […] (M18αα) and 2,2,19,19-tetramethyl-[…]-1,20-dioic acid (M20αα), were tested for their effect on glucose uptake and production, and the expression of glucose- and lipid-related genes in in vitro models. […] Inhibition of glucose production was tested in HepG2 human liver cells.

[3] = tested on: fully differentiated 3T3L1 adipocytes; assay: glucose uptake in 3T3L1 adipocytes; type: cell-based; details: insulin as positive control
Procedure: as §2

[4] = tested on: C57BL/KsJ (db/db) Spontaneous T2D mice; assay: glucose lowering effect in db/db mice; type: in vivo; details: once daily oral 30 mg/kg
Procedure: In addition, the glucose lowering effect of the above three compounds M16αα, M18αα and M20αα was tested in C57BL/KsJ (db/db) Spontaneous T2D mice, which serve as a model for T2D. These animals are characterized by hyperphagia, obesity, hyperglycemia and insulin resistance. The mice were treated once daily by oral administration of the tested compound at 30 mg/kg.

HepG2 human liver cells = assay: inhibition of glucose production in HepG2 cells; type: cell-based
Procedure: as §2

| SMILES | half-life (half-life in dogs) [h] | half-life (half-life in rats) [h] | half-life (half-life in humans) [h] | lipoprotein production [1] | expression of genes that control liver gluconeogenesis and lipid synthesis [2] | glucose uptake [3] | blood glucose levels [4] | serum insulin levels [4] | serum triglyceride levels [4] | hepatic glucose production (HepG2 human liver cells) |
| --- | --- | --- | --- | --- | --- | --- | --- | --- | --- | --- |
| CC(C)(CCCCCCCCCCC(C)(C)CC(=O)O)CC(=O)O [Medica16-ββ, 3,3,14,14-tetramethylhexadecanedioic acid, reference compound] | 25.8 | 2.7 ± 0.4 | 31.5 ± 12.8 |  |  |  |  |  |  |  |
| CC(C)(CCCCCCCCCCCCCCCCC(C)(C)C(=O)O)C(=O)O [M20αα] |  |  |  | significant or full inhibition | effective in inhibiting | increase glucose uptake | significantly decrease | significantly decrease | significantly decrease | significant or full inhibition |
| CC(C)(CCCCCCCCCCCCCCC(C)(C)C(=O)O)C(=O)O [M18αα, 2,2,17,17-tetramethylocta-decane-1,18-dioic acid] |  |  |  | significant or full inhibition | effective in inhibiting | increase glucose uptake | significantly decrease | significantly decrease | significantly decrease | significant or full inhibition |
